These results are taken from patent publication US11814367B2, “Inhibitors of glycogen synthase 1 (GYS1) and methods of use thereof” (Maze Therapeutics, Inc., priority 2021, dated 2023).

Bounds are passed on as bounds.

Experiment [1] addresses hGYS2 enzyme (recombinant hGYS2/GN1 protein) (Homo sapiens (Human), UniProt P54840). The experiment can be described thus: GYS2 coupled enzyme assay (PK/LDH). It is filed as biochemical. Particulars: geometric mean of at least 2 assay runs on separate days, read-out: Avg_IC50. Summed up: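 Continuous PK/LDH-coupled readout of NADH loss at 340 nm over 10 min, with 200 nM hGYS2/GN1 and 2 mM each of UDP-glucose, glucose-6-phosphate and PEP, in 50 mM Tris pH 7.5 with 0.2% glycogen and 2.5% DMSO. Slopes were normalized to controls and IC50s fit to a Hill curve from duplicates.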

The subject of experiment [2] is hGYS1 enzyme / glycogen synthesis in HeLa cells. Put plainly: GYS1 cell based assay (glycogen synthesis, Glucose-glo). More on the design: species or system human. The note with it: Homo sapiens, HeLa, 24 h, 24 h incubation, 20 mM glucose, geometric mean of at least 2 runs. Summed up:
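HeLa cells starved 24 h in medium containing only 1× Glutamax were plated onto compound in medium with 20 mM glucose (1% DMSO final) for 24 h, 37 °C, 5% CO2. Acid lysates were Tris-quenched, glucoamylase-digested (pH 5.3, 1 h, 37 °C) and read by Glucose-glo luminescence. IC50 came from Hill fits, as geometric mean of ≥2 runs.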

Experiment [3] has as its target hGYS1 enzyme (recombinant hGYS1/GN1 protein) (Homo sapiens (Human), UniProt P13807). Put plainly: GYS1 coupled enzyme assay (PK/LDH). The experiment is classed as biochemical. Particulars: hGYS1/GN1 50 nM, UDP-Glucose 0.8 mM, G6P 1 mM; geometric mean of at least 2 runs.

Chain of hGYS1 enzyme (recombinant hGYS1/GN1 protein) (P13807 whole entry): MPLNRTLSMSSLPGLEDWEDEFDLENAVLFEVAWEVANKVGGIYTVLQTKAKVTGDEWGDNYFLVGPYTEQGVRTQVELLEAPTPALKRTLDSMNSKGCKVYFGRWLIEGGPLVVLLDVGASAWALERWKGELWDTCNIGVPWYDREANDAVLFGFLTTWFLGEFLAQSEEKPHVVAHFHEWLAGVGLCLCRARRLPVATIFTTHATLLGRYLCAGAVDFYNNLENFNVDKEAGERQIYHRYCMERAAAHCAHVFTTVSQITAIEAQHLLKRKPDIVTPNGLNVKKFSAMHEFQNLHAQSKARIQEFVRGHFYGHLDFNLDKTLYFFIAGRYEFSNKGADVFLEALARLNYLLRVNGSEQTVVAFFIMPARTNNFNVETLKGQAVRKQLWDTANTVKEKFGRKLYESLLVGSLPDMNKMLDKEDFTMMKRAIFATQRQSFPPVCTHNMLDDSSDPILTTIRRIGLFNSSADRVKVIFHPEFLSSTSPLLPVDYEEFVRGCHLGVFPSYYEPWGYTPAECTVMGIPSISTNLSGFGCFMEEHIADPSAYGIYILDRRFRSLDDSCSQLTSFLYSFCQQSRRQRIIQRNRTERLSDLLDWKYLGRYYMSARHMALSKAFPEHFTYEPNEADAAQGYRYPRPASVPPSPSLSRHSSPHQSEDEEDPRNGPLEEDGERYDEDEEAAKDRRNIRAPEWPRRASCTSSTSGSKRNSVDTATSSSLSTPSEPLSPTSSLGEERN
Chain of hGYS1 enzyme (recombinant hGYS1/GN1 protein) (P46976 whole entry partner): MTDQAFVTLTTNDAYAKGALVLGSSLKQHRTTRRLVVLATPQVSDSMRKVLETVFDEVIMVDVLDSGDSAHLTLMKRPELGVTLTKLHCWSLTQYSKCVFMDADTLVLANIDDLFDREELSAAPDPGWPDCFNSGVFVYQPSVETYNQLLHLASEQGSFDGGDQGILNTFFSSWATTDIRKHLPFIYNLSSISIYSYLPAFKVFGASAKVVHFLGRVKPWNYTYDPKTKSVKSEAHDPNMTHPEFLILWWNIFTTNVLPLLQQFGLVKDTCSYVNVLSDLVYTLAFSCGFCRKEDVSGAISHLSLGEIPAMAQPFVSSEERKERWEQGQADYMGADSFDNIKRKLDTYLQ
Chain of hGYS2 enzyme (recombinant hGYS2/GN1 protein) (P54840 whole entry): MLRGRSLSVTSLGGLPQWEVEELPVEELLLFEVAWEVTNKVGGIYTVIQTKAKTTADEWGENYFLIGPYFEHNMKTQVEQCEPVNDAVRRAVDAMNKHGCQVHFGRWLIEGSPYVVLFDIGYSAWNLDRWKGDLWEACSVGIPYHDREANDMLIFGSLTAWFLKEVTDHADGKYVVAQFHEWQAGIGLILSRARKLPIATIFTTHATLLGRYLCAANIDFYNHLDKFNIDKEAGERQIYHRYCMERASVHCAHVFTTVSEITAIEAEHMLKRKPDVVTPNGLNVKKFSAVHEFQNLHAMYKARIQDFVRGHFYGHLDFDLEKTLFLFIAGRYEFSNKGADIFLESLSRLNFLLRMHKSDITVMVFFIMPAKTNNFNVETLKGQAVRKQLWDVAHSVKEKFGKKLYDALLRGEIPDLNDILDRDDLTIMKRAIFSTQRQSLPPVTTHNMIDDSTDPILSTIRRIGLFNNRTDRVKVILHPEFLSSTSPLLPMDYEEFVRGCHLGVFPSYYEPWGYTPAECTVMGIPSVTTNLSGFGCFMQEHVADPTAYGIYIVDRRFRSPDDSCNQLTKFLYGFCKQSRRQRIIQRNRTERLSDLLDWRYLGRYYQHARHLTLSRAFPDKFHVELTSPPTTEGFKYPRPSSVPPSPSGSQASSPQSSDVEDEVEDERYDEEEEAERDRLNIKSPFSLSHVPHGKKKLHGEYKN
Chain of hGYS2 enzyme (recombinant hGYS2/GN1 protein) (P46976 whole entry partner): as the sequence (P46976 whole entry partner) above

In the case of `O=C(N[C@@H](c1ccccc1)c1ccc(C2CC2)c(F)c1)[C@@H]1C[C@@H](F)CN1C(=O)Cn1c(=O)[nH]c2ccccc21` [Compound 456, (2S,4R)-N-[(S)-(4-cyclopropyl-3-fluorophenyl)(phenyl)methyl]-4-fluoro-1-[2-(2-oxo-2,3-dihydro-1H-1,3-benzodiazol-1-yl)acetyl]pyrrolidine-2-carboxamide], the IC50 in experiment [1] is > 100000 nM; in experiment [2], 1080 nM; in experiment [3], 55 nM.

As for `Cn1c(=O)n(CC(=O)N2C[C@H](F)C[C@H]2C(=O)N[C@@H](c2ccccc2)c2ccc(C3CC3)c(F)c2)c2ccccc21` [Compound 457, (2S,4R)-N-[(S)-(4-cyclopropyl-3-fluorophenyl)(phenyl)methyl]-4-fluoro-1-[2-(3-methyl-2-oxo-2,3-dihydro-1H-1,3-benzodiazol-1-yl)acetyl] pyrrolidine-2-carboxamide], the IC50 in experiment [1] was > 100000 nM; in experiment [2] it was 720 nM; in experiment [3] it was 32 nM.

With `O=C(N[C@@H](c1ccccc1)c1ccc(C2CC2)c(F)c1)[C@@H]1C[C@@H](F)CN1C(=O)Cc1n[nH]c2ccccc12` [Compound 458, (2S,4R)-N-[(S)-(4-cyclopropyl-3-fluorophenyl)(phenyl)methyl]-4-fluoro-1-[2-(1H-indazol-3-yl)acetyl]pyrrolidine-2-carboxamide], the values for the IC50 in experiment [1], in experiment [2] and in experiment [3] were > 100000 nM, 1330 nM and 71 nM, respectively.

On to `Cn1nc(CC(=O)N2C[C@H](F)C[C@H]2C(=O)N[C@@H](c2ccccc2)c2ccc(C3CC3)c(F)c2)c2ccccc21` [Compound 459, (2S,4R)-N-[(S)-(4-cyclopropyl-3-fluorophenyl)(phenyl)methyl]-4-fluoro-1-[2-(1-methyl-1H-indazol-3-yl)acetyl]pyrrolidine-2-carboxamide], for which the IC50 was > 100000 nM in experiment [1], 750 nM in experiment [2] and 28 nM in experiment [3].

As to `Cn1c(CC(=O)N2C[C@H](F)C[C@H]2C(=O)N[C@@H](c2ccccc2)c2ccc(C3CC3)c(F)c2)cc2ccccc21` [Compound 462, (2S,4R)-N-[(S)-(4-cyclopropyl-3-fluorophenyl)(phenyl)methyl]-4-fluoro-1-[2-(1-methyl-1H-indol-2-yl)acetyl]pyrrolidine-2-carboxamide], the IC50 in experiment [1] was > 100000 nM; in experiment [2], 640 nM; in experiment [3], 24 nM.

Take `Cn1cc(CC(=O)N2C[C@H](F)C[C@H]2C(=O)N[C@@H](c2ccccc2)c2ccc(C3CC3)c(F)c2)c2ccccc21` [Compound 463, (2S,4R)-N-[(S)-(4-cyclopropyl-3-fluorophenyl)(phenyl)methyl]-4-fluoro-1-[2-(1-methyl-1H-indol-3-yl)acetyl]pyrrolidine-2-carboxamide]: the IC50 in experiment [1] is > 100000 nM; in experiment [2], 670 nM; in experiment [3], 25 nM.

Take `Cc1nc2ccccc2n1CC(=O)N1C[C@H](F)C[C@H]1C(=O)N[C@@H](c1ccccc1)c1ccc(C2CC2)c(F)c1` [Compound 464, (2S,4R)-N-[(S)-(4-cyclopropyl-3-fluorophenyl)(phenyl)methyl]-4-fluoro-1-[2-(2-methyl-1H-1,3-benzodiazol-1-yl)acetyl]pyrrolidine-2-carboxamide]: the results for the IC50 in experiment [1], in experiment [2] and in experiment [3] were > 100000 nM, 650 nM and 23 nM, respectively.

Turning to `O=C(N[C@@H](c1ccccc1)c1ccc(C2CC2)c(F)c1)[C@@H]1C[C@@H](F)CN1C(=O)CN1CCNCC1=O` [Compound 465, (2S,4R)-N-[(S)-(4-cyclopropyl-3-fluorophenyl)(phenyl)methyl]-4-fluoro-1-[2-(2-oxopiperazin-1-yl)acetyl]pyrrolidine-2-carboxamide], the IC50 is > 100000 nM in experiment [1], 6040 nM in experiment [2] and 547 nM in experiment [3].

Consider `O=C(N[C@@H](c1ccccc1)c1ccc(C2CC2)c(F)c1)[C@@H]1C[C@@H](F)CN1C(=O)CN1CCN(CC(F)(F)F)CC1=O` [Compound 466, (2S,4R)-N-[(S)-(4-cyclopropyl-3-fluorophenyl)(phenyl)methyl]-4-fluoro-1-{2-[2-oxo-4-(2,2,2-trifluoroethyl)piperazin-1-yl]acetyl}pyrrolidine-2-carboxamide], for which the IC50 in experiment [1] is > 100000 nM; in experiment [2] it was 2320 nM; in experiment [3], 238 nM.

Consider `O=C1Nc2ccccc2C1CC(=O)N1C[C@H](F)C[C@H]1C(=O)N[C@@H](c1ccccc1)c1ccc(C2CC2)c(F)c1` (stereo partly drawn) [Compound 467, (2S,4R)-N-[(S)-(4-cyclopropyl-3-fluorophenyl)(phenyl)methyl]-4-fluoro-1-[2-(2-oxo-2,3-dihydro-1H-indol-3-yl)acetyl]pyrrolidine-2-carboxamide], for which the IC50 in experiment [1] is > 100000 nM; in experiment [2] it was 4810 nM; in experiment [3] it was 324 nM.

As for `Cc1cn(CC(=O)N2C[C@H](F)C[C@H]2C(=O)N[C@@H](c2ccccc2)c2ccc(C3CC3)c(F)c2)cn1` [Compound 468, (2S,4R)-N-[(S)-(4-cyclopropyl-3-fluorophenyl)(phenyl)methyl]-4-fluoro-1-[2-(4-methyl-1H-imidazol-1-yl)acetyl]pyrrolidine-2-carboxamide], the results for the IC50 in experiment [1], in experiment [2] and in experiment [3] were > 100000 nM, 1430 nM and 91 nM, respectively.

With `CCn1cc(NCC(=O)N2C[C@H](F)C[C@H]2C(=O)N[C@@H](c2ccccc2)c2ccc(C3CC3)c(F)c2)nn1` [Compound 469, (2S,4R)-N-[(S)-(4-cyclopropyl-3-fluorophenyl)(phenyl)methyl]-1-{2-[(1-ethyl-1H-1,2,3-triazol-4-yl)amino]acetyl}-4-fluoropyrrolidine-2-carboxamide], the IC50 in experiment [1] is > 100000 nM; in experiment [2] it was 1180 nM; in experiment [3], 61 nM.

As to `CCn1ncc(NCC(=O)N2C[C@H](F)C[C@H]2C(=O)N[C@@H](c2ccccc2)c2ccc(C3CC3)c(F)c2)n1` [Compound 470, (2S,4R)-N-[(S)-(4-cyclopropyl-3-fluorophenyl)(phenyl)methyl]-1-{2-[(2-ethyl-2H-1,2,3-triazol-4-yl)amino]acetyl}-4-fluoropyrrolidine-2-carboxamide], the IC50 in experiment [1] is > 100000 nM; in experiment [2] it was 960 nM; in experiment [3] it was 82 nM.

As for `O=C(N[C@@H](c1ccccc1)c1ccc(C2CC2)c(F)c1)[C@@H]1C[C@@H](F)CN1C(=O)CNc1cnccn1` [Compound 471, (2S,4R)-N-[(S)-(4-cyclopropyl-3-fluorophenyl)(phenyl)methyl]-4-fluoro-1-{2-[(pyrazin-2-yl)amino]acetyl}pyrrolidine-2-carboxamide], the IC50 was > 100000 nM in experiment [1], 700 nM in experiment [2] and 29 nM in experiment [3].

Turning to `Cc1nccc(NCC(=O)N2C[C@H](F)C[C@H]2C(=O)N[C@@H](c2ccccc2)c2ccc(C3CC3)c(F)c2)n1` [Compound 472, (2S,4R)-N-[(S)-(4-cyclopropyl-3-fluorophenyl)(phenyl)methyl]-4-fluoro-1-{2-[(2-methylpyrimidin-4-yl)amino]acetyl} pyrrolidine-2-carboxamide], the values for the IC50 in experiment [1], in experiment [2] and in experiment [3] were > 100000 nM, 540 nM and 22 nM, respectively.

With `CCn1ncc(N(C)CC(=O)N2C[C@H](F)C[C@H]2C(=O)N[C@@H](c2ccccc2)c2ccc(C3CC3)c(F)c2)n1` [Compound 474, (2S,4R)-N-[(S)-(4-cyclopropyl-3-fluorophenyl)(phenyl)methyl]-1-{2-[(2-ethyl-2H-1,2,3-triazol-4-yl)(methyl)amino]acetyl}-4-fluoropyrrolidine-2-carboxamide], the IC50 was > 100000 nM in experiment [1], 880 nM in experiment [2] and 43 nM in experiment [3].

As for `CN(CC(=O)N1C[C@H](F)C[C@H]1C(=O)N[C@@H](c1ccccc1)c1ccc(C2CC2)c(F)c1)c1cnccn1` [Compound 475, (2S,4R)-N-[(S)-(4-cyclopropyl-3-fluorophenyl)(phenyl)methyl]-4-fluoro-1-{2-[methyl(pyrazin-2-yl)amino]acetyl} pyrrolidine-2-carboxamide], the results for the IC50 in experiment [1], in experiment [2] and in experiment [3] were > 100000 nM, 1290 nM and 77 nM, respectively.

As to `Cc1nccc(N(C)CC(=O)N2C[C@H](F)C[C@H]2C(=O)N[C@@H](c2ccccc2)c2ccc(C3CC3)c(F)c2)n1` [Compound 476, (2S,4R)-N-[(S)-(4-cyclopropyl-3-fluorophenyl)(phenyl)methyl]-4-fluoro-1-{2-[methyl(2-methylpyrimidin-4-yl)amino]acetyl} pyrrolidine-2-carboxamide], the IC50 in experiment [1] was > 100000 nM; in experiment [2] it was 900 nM; in experiment [3], 39 nM.

Regarding `Cc1ccc2c(CC(=O)N3C[C@H](F)C[C@H]3C(=O)N[C@@H](c3ccccc3)c3ccc(C4CC4)c(F)c3)cccc2n1` [Compound 477, (2S,4R)-N-[(S)-(4-cyclopropyl-3-fluorophenyl)(phenyl)methyl]-4-fluoro-1-[2-(2-methylquinolin-5-yl)acetyl]pyrrolidine-2-carboxamide], the IC50 was > 100000 nM in experiment [1], 630 nM in experiment [2] and 20 nM in experiment [3].

Regarding `O=C(N[C@@H](c1ccccc1)c1ccc(C2CC2)c(F)c1)[C@@H]1C[C@@H](F)CN1C(=O)Cc1ccc2ncnn2c1` [Compound 478, (2S,4R)-N-[(S)-(4-cyclopropyl-3-fluorophenyl)(phenyl)methyl]-4-fluoro-1-(2-{[1,2,4]triazolo[1,5-a]pyridin-6-yl}acetyl) pyrrolidine-2-carboxamide], the values for the IC50 in experiment [1], in experiment [2] and in experiment [3] were 68200 nM, 1190 nM and 69 nM, respectively.
